What is called melting point is the temperature, or range, at which the solid turns liquid.

Turning to `CN(C)Cc1cnnn1-c1cccc(C2=Nc3cc(N(C)C)c(C(F)(F)F)cc3NC(=O)C2)c1` [Example 38, 7-Dimethylamino-4-[3-(5-dimethylaminomethyl-[1,2,3]triazol-1-yl)-phenyl]-8-trifluoromethyl-1,3-dihydro-benzo[b][1,4]diazepin-2-one], the melting point came to 200 °C.
Take `CN(C)c1cc2c(cc1Cl)NC(=O)CC(c1cccc(-c3cc(CO)nn3C)c1)=N2` [Example 39, 8-Chloro-7-dimethylamino-4-[3-(5-hydroxymethyl-2-methyl-2H-pyrazol-3-yl)-phenyl]-1,3-dihydro-benzo[b][1,4]diazepin-2-one]: the melting point was found to be 184 °C.
The result for `N#Cc1cc(C2=Nc3cc(N4CCCC4)c(C(F)(F)F)cc3NC(=O)C2)ccn1` [Example 40, 4-(4-Oxo-8-pyrrolidin-1-yl-7-trifluoromethyl-4,5-dihydro-3H-benzo[b][1,4]diazepin-2-yl)-pyridine-2-carbonitrile] reads 188 °C (dec.).
For the compound `O=C1CC(c2cccc(-n3nncc3CO)c2)=Nc2cc(N3CCCC3)c(C(F)(F)F)cc2N1` [Example 41, 4-[3-(5-Hydroxymethyl-[1,2,3]triazol-1-yl)-phenyl]-7-pyrrolidin-1-yl-8-trifluoromethyl-1,3-dihydro-benzo[b][1,4]diazepin-2-one], the melting point worked out at 134 °C.
Turning to `CN(C)c1cc2c(cc1F)NC(=O)CC(c1cccc(-n3nncc3CO)c1)=N2` [Example 42, 7-Dimethylamino-8-fluoro-4-[3-(5-hydroxymethyl-[1,2,3]triazol-1-yl)-phenyl]-1,3-dihydro-benzo[b][1,4]diazepin-2-one], the melting point came out at 75 °C.
Consider `CN(C)Cc1cnnn1-c1cccc(C2=Nc3cc(N(C)C)c(F)cc3NC(=O)C2)c1` [Example 43, 7-Dimethylamino-4-[3-(5-dimethylaminomethyl-[1,2,3]triazol-1-yl)-phenyl]-8-fluoro-1,3-dihydro-benzo[b][1,4]diazepin-2-one], for which the melting point was 181 °C.
`CN(C)c1cc2c(cc1F)NC(=O)CC(c1cccc(-c3cc(CO)no3)c1)=N2` [Example 44, 7-Dimethylamino-8-fluoro-4-[3-(3-hydroxymethyl-isoxazol-5-yl)-phenyl]-1,3-dihydro-benzo[b][1,4]diazepin-2-one]: the melting point stood at 187 °C.
As for `CN(C)c1cc2c(cc1Cl)NC(=O)CC(c1cccc(-n3nncc3CN3CCCC3)c1)=N2` [Example 45, 8-Chloro-7-dimethylamino-4-[3-(5-pyrrolidin-1-ylmethyl-[1,2,3]triazol-1-yl)-phenyl]-1,3-dihydro-benzo[b][1,4]diazepin-2-one], the melting point fell in the range of 180 to 182 °C.
As to `CN(C)c1cc2c(cc1Cl)NC(=O)CC(c1cccc(-n3nncc3CN3CCC3)c1)=N2` [Example 48, 4-[3-(5-Azetidin-1-ylmethyl-[1,2,3]triazol-1-yl)-phenyl]-8-chloro-7-dimethylamino-1,3-dihydro-benzo[b][1,4]diazepin-2-one], the melting point was 153 °C.
Turning to `CN(C)c1cc2c(cc1Cl)NC(=O)CC(c1cccc(-c3cc(CO)on3)c1)=N2` [Example 49, 8-Chloro-7-dimethylamino-4-[3-(5-hydroxymethyl-isoxazol-3-yl)-phenyl]-1,3-dihydro-benzo[b][1,4]diazepin-2-one], the melting point is 211 °C (dec.).
Regarding `O=C1CC(c2cccc(-n3nncc3CO)c2)=Nc2cc(N3CCCCC3)c(Cl)cc2N1` [Example 50, 8-Chloro-4-[3-(5-hydroxymethyl-[1,2,3]triazol-1-yl)-phenyl]-7-piperidin-1-yl-1,3-dihydro-benzo[b][1,4]diazepin-2-one], the melting point was 246 °C (dec.).
Turning to `CN(C)c1cc2c(cc1C(F)(F)F)NC(=O)CC(c1cccc(-c3cc(CO)on3)c1)=N2` [Example 51, 7-Dimethylamino-4-[3-(5-hydroxymethyl-isoxazol-3-yl)-phenyl]-8-trifluoromethyl-1,3-dihydro-benzo[b][1,4]diazepin-2-one], the melting point is 211 °C (dec.).
